Laboratory results reported in US20210227837A1, “NATAMYCIN FOR THE PRESERVATION OF A BAKED PRODUCT” (DSM IP ASSETS B.V., priority 2018, published 2021).

Test: Stability of natamycin solutions in aqueous potassium sorbate (residual natamycin by HPLC)
Assay type: physicochemical
Method: Natamycin concentrations were determined using […] as follows. • HPLC system: Waters iClass • Column: Waters Symmetry C18, 4.6×150 mm, 3.5 μm, Part No. WAT200632, Column no. 1483, Lot no. 0198313011 • Column temperature: 25° C. • Eluent A: 50 mM ammonium acetate buffer pH 5.8 (with acetic acid) • Eluent B: Acetonitrile • Wash: 60% acetonitrile/40% water (v/v) • Injection volume: 10 μl • Injector temperature: 10° C. in darkness • Flow: 1 mL/min
The reverse phase HPLC uses a UV detector to determine the residual concentration of natamycin at 303 nm. A set of standard dilutions containing subsequently increasing concentrations of natamycin in methanol was made and from these a calibration curve was obtained. The concentration of natamycin should not exceed a concentration of 88 mg/L. Generally, the dilutions contained 20 mg of sample and […] of methanol.
To obtain a 1% solution, 33 mg of natamycin was used instead of 0.2 g and heating during dissolution was omitted, resulting in a salt/natamycin ratio of 45 (w/w) or 200 (mole/mole). Samples of the mixtures were analyzed over time by HPLC for residual natamycin concentration. The shelf life test of the mixtures was done by storage at low temperatures (4-7° C.) and ambient temperatures (20-24° C.).

Residual natamycin (%) (4-7° C., pH 9.7, natamycin 6% (w/w), day 0): 103%
Residual natamycin (%) (4-7° C., pH 9.7, natamycin 6% (w/w), day 5): 103%
Residual natamycin (%) (4-7° C., pH 9.7, natamycin 6% (w/w), day 6): 99%
Residual natamycin (%) (4-7° C., pH 9.7, natamycin 6% (w/w), day 12): 100%
Residual natamycin (%) (4-7° C., pH 9.7, natamycin 6% (w/w), day 31): 92%
Residual natamycin (%) (4-7° C., pH 9.7, natamycin 6% (w/w), day 42): 92%
Residual natamycin (%) (4-7° C., pH 9.7, natamycin 6% (w/w), day 49): 88%
Residual natamycin (%) (4-7° C., pH 9.7, natamycin 6% (w/w), day 69): 80%
Residual natamycin (%) (20-24° C., pH 9.6, natamycin 6% (w/w), day 0): 105%
Residual natamycin (%) (20-24° C., pH 9.6, natamycin 6% (w/w), day 2): 104%
Residual natamycin (%) (20-24° C., pH 9.6, natamycin 6% (w/w), day 6): 98%
Residual natamycin (%) (20-24° C., pH 9.6, natamycin 6% (w/w), day 8): 98%
Residual natamycin (%) (20-24° C., pH 9.6, natamycin 6% (w/w), day 15): 97%
Residual natamycin (%) (20-24° C., pH 9.6, natamycin 6% (w/w), day 20): 95%
Residual natamycin (%) (20-24° C., pH 9.6, natamycin 6% (w/w), day 23): 93%
Residual natamycin (%) (20-24° C., pH 9.6, natamycin 6% (w/w), day 34): 81%
Residual natamycin (%) (20-24° C., pH 9.6, natamycin 6% (w/w), day 65): 73%
Residual natamycin (%) (20-24° C., pH 9.9, natamycin 1% (w/w), day 0): 104%
Residual natamycin (%) (20-24° C., pH 9.9, natamycin 1% (w/w), day 2): 101%
Residual natamycin (%) (20-24° C., pH 9.9, natamycin 1% (w/w), day 6): 97%
Residual natamycin (%) (20-24° C., pH 9.9, natamycin 1% (w/w), day 8): 94%
Residual natamycin (%) (20-24° C., pH 9.9, natamycin 1% (w/w), day 15): 88%
Residual natamycin (%) (20-24° C., pH 9.9, natamycin 1% (w/w), day 20): 79%
Residual natamycin (%) (20-24° C., pH 9.9, natamycin 1% (w/w), day 23): 80%
Residual natamycin (%) (20-24° C., pH 9.9, natamycin 1% (w/w), day 34): 62%
Residual natamycin (%) (20-24° C., pH 9.9, natamycin 1% (w/w), day 65): 45%
SMILES: C[C@@H]1C/C=C/C=C/C=C/C=C/[C@H](O[C@@H]2O[C@H](C)[C@@H](O)[C@H](N)[C@@H]2O)C[C@@H]2O[C@](O)(C[C@@H](O)C[C@H]3O[C@@H]3/C=C/C(=O)O1)C[C@H](O)[C@H]2C(=O)O [natamycin]
